Patent publication US20200131156A1, “ARYLSULFONYLPYROLECARBOXAMIDE DERIVATIVES AS Kv3 POTASSIUM CHANNEL ACTIVATORS” (H. Lundbeck A/S, priority 2018, published 2020)

Biological target: T1, hKv3.1b (Homo sapiens, UniProt P48547)
T1 construct: expressed in transfected cells
T1 sequence (P48547 1-585 isoform P48547-2): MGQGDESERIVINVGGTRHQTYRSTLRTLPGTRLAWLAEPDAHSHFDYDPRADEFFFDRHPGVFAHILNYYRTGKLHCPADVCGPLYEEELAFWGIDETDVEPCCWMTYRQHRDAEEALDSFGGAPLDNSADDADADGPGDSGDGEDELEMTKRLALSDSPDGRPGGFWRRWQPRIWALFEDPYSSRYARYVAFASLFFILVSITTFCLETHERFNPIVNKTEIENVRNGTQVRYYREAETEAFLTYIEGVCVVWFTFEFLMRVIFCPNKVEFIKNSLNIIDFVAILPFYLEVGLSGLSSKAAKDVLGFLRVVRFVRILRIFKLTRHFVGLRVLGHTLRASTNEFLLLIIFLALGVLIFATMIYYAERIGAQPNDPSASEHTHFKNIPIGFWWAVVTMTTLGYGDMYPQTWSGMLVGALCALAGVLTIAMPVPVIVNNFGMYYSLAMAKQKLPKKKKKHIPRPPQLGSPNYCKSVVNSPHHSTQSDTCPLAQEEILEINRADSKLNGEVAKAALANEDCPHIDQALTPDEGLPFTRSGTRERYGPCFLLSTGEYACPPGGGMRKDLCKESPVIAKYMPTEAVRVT
Experiment: Automated patch clamp (QPatch-16x) on HEK-293 cells stably expressing hKv3.1b
Format: cell-based
Conditions: for ECdelta5 mV: concentration needed to shift the activation threshold 5 mV; for Threshold Shift: maximum absolute hyperpolarizing shift of activation threshold at tested concentrations 0.37-30 μM
Procedure, shortened: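 Whole-cell automated patch clamp, extracellular pH 7.4, 4 mM Na2ATP intracellular; holding −80 mV, 200 ms steps −70 to +10 mV. Five ascending concentrations (0.37–30 μM) per cell, ~3 min each, 0.33% DMSO vehicle. Activation threshold (5% of vehicle peak at 10 mV) shift fitted sigmoidally; ECdelta5 mV read from curve.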

Row | Structure (SMILES) | ECdelta5 mV [nM] | Threshold Shift [mV]
1 | Cc1ccc(S(=O)(=O)n2ccc(C(=O)NCc3nnc(C)s3)c2)cc1 [Compound 115, 1-(4-methylbenzene-1-sulfonyl)-N-[(5-methyl-1,3,4-thiadiazol-2-yl)methyl]-1H-pyrrole-3-carboxamide] | 2800 | 17
2 | Cc1ccc(S(=O)(=O)n2ccc(C(=O)NCc3cc(C)n[nH]3)c2)cc1 [Compound 116, 1-(4-methylbenzene-1-sulfonyl)-N-[(3-methyl-1H-pyrazol-5-yl)methyl]-1H-pyrrole-3-carboxamide] | 2600 | 25
3 | COc1ccc(S(=O)(=O)n2ccc(C(=O)NCc3ccn(C)n3)c2)c(Cl)c1 [Compound 117, 1-(2-chloro-4-methoxybenzene-1-sulfonyl)-N-[(1-methyl-1H-pyrazol-3-yl)methyl]-1H-pyrrole-3-carboxamide] | 1500 | 21
4 | COc1ccc(S(=O)(=O)n2ccc(C(=O)NCc3ncc(C)cn3)c2)c(Cl)c1 [Compound 118, 1-(2-chloro-4-methoxybenzene-1-sulfonyl)-N-[(5-methylpyrimidin-2-yl)methyl]-1H-pyrrole-3-carboxamide] | 2500 | 20
